Data taken from US8952021B2, “Compounds for the prevention and treatment of cardiovascular disease” (Resverlogix Corp., priority 2009, dated 2015).

Legend:
ApoA-I mRNA = assay: Quantification of ApoA-I mRNA in HepG2 cells (real-time PCR); type: cell-based; set-up: key: Active: An active compound was defined as one that caused a ≧20% increase in ApoA-I mRNA at a concentration less than or equal to 100 μM; details: fold induction relative to DMSO control, concentration less than or equal to 100 μM
Description: In this example, ApoA-I mRNA in tissue culture cells was quantitated to measure the transcriptional up-regulation of ApoA-I when treated with a compound of the invention.
HepG2 cells (approximately 2×10^5 per well) were placed in a 24-well plate in approximately 400 μL MEM, supplemented with 0.5% (v/v) FBS, 24 h before addition of the compound of interest. At time of harvesting, the spent media was removed from the HepG2 cells and immediately placed on ice (for immediate use) or at −80° C. (for future use) in ApoA-I and albumin ELISAs. The cells remaining in the plate wells were rinsed in 200 μL PBS. PBS was carefully removed to avoid removing any loosely attached cells.
Once the PBS was removed, 85 μL cell lysis solution was added the cells in each well and incubated for 5-10 minutes at room temperature, to allow for complete cell lysis and detachment. mRNA was then prepared using the “mRNA Catcher PLUS plate” from Invitrogen, according to the protocol supplied. After the last wash, as much wash buffer as possible was aspirated without allowing the wells to dry. Elution Buffer (E3, 80 μL) was then added to each well. mRNA was then eluted by incubating the mRNA Catcher PLUS plate with Elution Buffer for 5 minutes at 68° C. and then immediately placing the plate on ice.
The eluted mRNA isolated was then used in a one-step real-time […] reaction, using components of the Ultra Sense Kit together with Applied Biosystems primer-probe mixes. Real-time PCR data was analyzed, using the Ct values, to determine the fold induction of each unknown sample, relative to the control (that is, relative to the control for each independent DMSO concentration).
An active compound was defined as one that caused a ≧20% increase in ApoA-I mRNA at a concentration less than or equal to 100 μM.

subjects with low HDL-C = details: cited from earlier work

melting point [°C]	SMILES	Effect on ApoA-I mRNA levels (ApoA-I mRNA)	increase in the HDL-C level (subjects with low HDL-C) [%]	reduction of the CHD risk (subjects with low HDL-C) [%]
152 to 154	CCC(C)c1ccc(-n2c(-c3cc(C)c(OCCO)c(C)c3)nc3ccc(OC)cc3c2=O)cc1 (stereo not shown) [Example 13, 3-(4-sec-butylphenyl)-2-(4-(2-hydroxyethoxy)-3,5-dimethylphenyl)-6-methoxyquinazolin-4(3H)-one]	Active	–	–
152 to 153	CCC(C)c1ccc(-n2c(-c3cc(C)c(OCCO)c(C)c3)nc3ccccc3c2=O)cc1 (stereo not shown) [Example 1 and 2, 3-(4-sec-butylphenyl)-2-(4-(2-hydroxyethoxy)-3,5-dimethylphenyl)quinazolin-4(3H)-one]	–	–	–
195 to 196	CCC(C)c1ccc(-n2c(-c3cc(C)c(OCCO)c(C)c3)nc3ccncc3c2=O)cc1 (stereo not shown) [Example 5, 3-(4-sec-butylphenyl)-2-(4-(2-hydroxyethoxy)-3,5-dimethylphenyl)pyrido[4,3-d]pyrimidin-4(3H)-one]	Active	–	–
172.8 to 174.9	CCC(C)c1ccc(-n2c(-c3ccc(OCCO)cc3)nc3ccccc3c2=O)cc1 (stereo not shown) [Example 6, 3-(4-sec-butylphenyl)-2-(4-(2-hydroxyethoxy)phenyl)quinazolin-4(3H)-one]	Active	–	–
235 to 237	CCC(C)c1ccc(-n2c(-c3cc(C)c(OCCO)c(C)c3)nc3cc(S(C)(=O)=O)ccc3c2=O)cc1 (stereo not shown) [Example 12, 3-(4-sec-butylphenyl)-2-(4-(2-hydroxyethoxy)-3,5-dimethylphenyl)-7-(methylsulfonyl)quinazolin-4(3H)-one]	Active	–	–
160 to 162	COc1ccc2nc(-c3cc(C)c(OCCO)c(C)c3)n(-c3ccc(Br)cc3)c(=O)c2c1 [Example 16, 3-(4-bromophenyl)-2-(4-(2-hydroxyethoxy)-3,5-dimethylphenyl)-6-methoxyquinazolin-4(3H)-one]	Active	–	–
100 to 102	COc1cccc2c(=O)n(-c3ccc(Br)cc3)c(-c3cc(C)c(OCCO)c(C)c3)nc12 [Example 17, 3-(4-bromophenyl)-2-(4-(2-hydroxyethoxy)-3,5-dimethylphenyl)-8-methoxyquinazolin-4(3H)-one]	Active	–	–
160 to 162	Cc1cc(-c2nc3ccccc3c(=O)n2-c2ccc(C(C)C)cc2)cc(C)c1OCCO [Example 18, 2-(4-(2-hydroxyethoxy)-3,5-dimethylphenyl)-3-(4-isopropylphenyl)quinazolin-4(3H)-one]	Active	–	–
258.8 to 260.2	CCC(C)c1ccc(-n2c(-c3cc(C)c(OCCO)c(C)c3)nc3ccc(S(C)(=O)=O)cc3c2=O)cc1 (stereo not shown) [Example 15, 3-(4-sec-butylphenyl)-2-(4-(2-hydroxyethoxy)-3,5-dimethylphenyl)-6-(methylsulfonyl)quinazolin-4(3H)-one]	Active	–	–
–	Cc1ccc(C)c(OCCCC(C)(C)C(=O)O)c1 [gemfibrozil]	–	6	22
185 to 186	Cc1cc(-c2nc3c(Cl)cccc3c(=O)n2-c2ccc(Br)cc2)cc(C)c1OCCO [Example 20, 3-(4-bromophenyl)-8-chloro-2-(4-(2-hydroxyethoxy)-3,5-dimethylphenyl)quinazolin-4(3H)-one]	Active	–	–
158 to 159	CCC(C)c1ccc(-n2c(-c3cc(C)c(OCCO)c(C)c3)nc3c(OC)cccc3c2=O)cc1 (stereo not shown) [Example 14, 3-(4-sec-butylphenyl)-2-(4-(2-hydroxyethoxy)-3,5-dimethylphenyl)-8-methoxyquinazolin-4(3H)-one]	Active	–	–
–	CCC(C)c1ccc(-n2c(-c3ccc(N(CC)CC)nc3)nc3ccccc3c2=O)cc1 (stereo not shown) [Example 44, 3-(4-sec-butylphenyl)-2-(6-(diethylamino)pyridin-3-yl)quinazolin-4(3H)-one]	Active	–	–

SMILES	melting point [°C]	Effect on ApoA-I mRNA levels (ApoA-I mRNA)	increase in the HDL-C level (subjects with low HDL-C) [%]	reduction of the CHD risk (subjects with low HDL-C) [%]
Cc1cc(-c2nc3ccccc3c(=O)n2-c2ccc(Br)cc2)cc(C)c1OCCO [Example 3, 3-(4-bromophenyl)-2-(4-(2-hydroxyethoxy)-3,5-dimethylphenyl)quinazolin-4(3H)-one]	164 to 165	Active	–	–
Cc1cc(-c2nc3ccccc3c(=O)n2-c2ccc(Cl)cc2)cc(C)c1OCCO [Example 10, 3-(4-chlorophenyl)-2-(4-(2-hydroxyethoxy)-3,5-dimethylphenyl)quinazolin-4(3H)-one]	101 to 103	Active	–	–
Cc1cc(-c2nc3ccccc3c(=O)n2-c2ccc(Br)cc2)ccc1OCCO [Example 19, 3-(4-bromophenyl)-2-(4-(2-hydroxyethoxy)-3-methylphenyl)quinazolin-4(3H)-one]	92 to 93	Active	–	–
Cc1cc(-c2nc3ccccc3c(=O)n2-c2ccc(F)cc2)cc(C)c1OCCO [Example 7, 3-(4-fluorophenyl)-2-(4-(2-hydroxyethoxy)-3,5-dimethylphenyl)quinazolin-4(3H)-one]	95 to 97	Active	–	–
Cc1cc(-c2nc3ccccc3c(=O)n2-c2ccc(I)cc2)cc(C)c1OCCO [Example 8, 2-(4-(2-hydroxyethoxy)-3,5-dimethylphenyl)-3-(4-iodophenyl)quinazolin-4(3H)-one]	101 to 103	Active	–	–
